# Data: US20230146455A1, “TREATMENT OF INFLAMMATORY DISEASES WITH PEPTIDES AND PHARMACEUTICAL COMPOSITIONS” (Yuyu Pharma, Inc., priority 2020, published 2023)
# Values joined by “and” are separate entries in the source; they are usually repeats but may differ in a detail not shown here. Equal entries are not always repeated. Where a SMILES comes first, the peptide text is derived from it. [ ]: non-standard residue; d: D form. Hyp = O=C(O)[C@@H]1C[C@@H](O)CN1
# Test system: CCL4/MIP-1 beta
# Assay: Example 9 Luminex, LPS hPBMCs: CCL4/MIP-1 beta
# Type: cell-based, human
# Details: for MFI (Bead name: CCL4/MIP-1 beta): dilution 10
# Description: Treatment Human PBMCs were pretreated with YY-101, YDE-011 and YDE-043 or reference compound; Xiidra® at various concentration (ranging from 1 nM to 100 uM) for 2 h before stimulation. An equal volume of 0.5% DMSO was used as a vehicle control. Then, the cells were treated with LPS at 5 ug/ml. The supernatants from treated cells were harvested at 24 h and placed in a 96 well for Luminex cytokine & chemokine profiling using a Luminex 200 multiplex assay (Luminex; R&D system, USA).
# The main study arm with triplicate wells per group in a 24-well plate: • 1. Blank • 2. PBMC: 0.5% DMSO • 3. PBMC+LPS (5 ug/ml) • 4. PBMC+YY-101 100 uM • 5. PBMC+YY-101 10 uM • 6. PBMC+YY-101 1 uM • 7. PBMC+YY-101 0.1 uM • 8. PBMC+YY-101 0.01 uM • 9. PBMC+LPS (5 ug/ml)+Xiidra®100 uM • 10. PBMC+LPS (5 ug/ml)+Xiidra® 10 uM • 11. PBMC+LPS (5 ug/ml)+Xiidra® 1 uM • 12. PBMC+LPS (5 ug/ml)+Xiidra®0.1 uM • 13. PBMC+LPS (5 ug/ml)+Xiidra®0.01 uM • 14. PBMC+LPS (5 ug/ml)+Xiidra®0.001 uM • 15. PBMC+LPS (5 ug/ml)+YY-101 100 uM • 16. PBMC+LPS (5 ug/ml)+YY-101 10 uM • 17. PBMC+LPS (5 ug/ml)+YY-101 1 uM • 18. PBMC+LPS (5 ug/ml)+YY-101 0.1 uM • 19. PBMC+LPS (5 ug/ml)+YY-101 0.01 uM • 20. PBMC+LPS (5 ug/ml)+YY-101 0.001 uM • 21. PBMC+LPS (5 ug/ml)+YDE-011 100 uM • 22. PBMC+LPS (5 ug/ml)+YDE-011 10 uM • 23. PBMC+LPS (5 ug/ml)+YDE-011 1 uM • 24. PBMC+LPS (5 ug/ml)+YDE-011 0.1 uM • 25. PBMC+LPS (5 ug/ml)+YDE-011 0.01 uM • 26. PBMC+LPS (5 ug/ml)+YDE-011 0.001 uM • 27. PBMC+LPS (5 ug/ml)+YDE-043 100 uM • 28. PBMC+LPS (5 ug/ml)+YDE-043 10 uM • 29. PBMC+LPS (5 ug/ml)+YDE-043 1 uM • 30. PBMC+LPS (5 ug/ml)+YDE-043 0.1 uM • 31. PBMC+LPS (5 ug/ml)+YDE-043 0.01 uM • 32. PBMC+LPS (5 ug/ml)+YDE-043 0.001 uM
# Multiplex assay was used to measure 30 cytokines and chemokines. The 1:2, 1:10 and 1:200 diluted cell supernatant and serial dilution of the standard were dispensed into a 96 well plate at 50 ul/well. Then, the pre-mixed cocktail of antibody-coated magnetic beads was dispensed at 50 ul/well and incubated at room temperature for 2 h in a horizontal orbital microplate shaker at 800±500 rpm. The beads were washed using a magnetic device to prevent loss. The biotin-antibody was dispensed in 50 ul of each well and incubated at room temperature for 1 h in a shaker at 800±500 rpm. After washing, streptavidin-PE was added at 50 ul/well and incubated at room temperature for 30 min in a shaker under the same conditions. Finally, after washing, wash buffer (100 ul/well) was added to the plate and incubated in a shaker for 2 min. The Luminex™ 200 setting were set according to the manufacturer's protocol. The data was calculated with a standard five-parameter logistic nonlinear regression analysis of the data (xPonent software 4.2, USA). The levels of cytokine/chemokine are normalized to the live cell counts (1×10^5 cells/mL) and presented as concentrations per mL (pg/mL or ng/mL).
# [1] = PBMC + LPS(5 ug/ml), test article 0.01 uM, Mean
# [2] = PBMC + LPS(5 ug/ml), test article 0.01 uM, single replicates
# [3] = PBMC + LPS(5 ug/ml), test article 0.1 uM, Mean
# [4] = PBMC + LPS(5 ug/ml), test article 0.1 uM, single replicates
# [5] = PBMC + LPS(5 ug/ml), test article 1 uM, Mean
# [6] = PBMC + LPS(5 ug/ml), test article 1 uM, single replicates
# [7] = PBMC + LPS(5 ug/ml), test article 10 uM, Mean
# [8] = PBMC + LPS(5 ug/ml), test article 10 uM, single replicates
# [9] = PBMC + LPS(5 ug/ml), test article 100 uM, Mean
# [10] = PBMC + LPS(5 ug/ml), test article 100 uM, single replicates
# [11] = PBMC without LPS, test article 0.01 uM, Mean
# [12] = PBMC without LPS, test article 0.01 uM, single replicates
# [13] = PBMC without LPS, test article 0.1 uM, Mean
# [14] = PBMC without LPS, test article 0.1 uM, single replicates
# [15] = PBMC without LPS, test article 1 uM, Mean
# [16] = PBMC without LPS, test article 1 uM, single replicates
# [17] = PBMC without LPS, test article 10 uM, Mean
# [18] = PBMC without LPS, test article 10 uM, single replicates
# [19] = PBMC without LPS, test article 100 uM, Mean
# [20] = PBMC without LPS, test article 100 uM, single replicates
compound,measurement,setting,value
CC(C)C[C@H](NC(=O)CNC(=O)[C@H](CC(=O)O)NC(=O)[C@H](CCC(N)=O)NC(=O)CNC(=O)[C@@H]1C[C@@H](O)CN1)C(=O)N[C@@H](C)C(=O)NCC(=O)N1CCC[C@H]1C(=O)N[C@@H](CCCCN)C(=O)O [YY-101] (H-[Hyp]GQDGLAGPK-OH; N-terminus and C-terminus assumed),conc/live cell (CCL4/MIP-1 beta),[1],2461.1 pg/10^5
same,MFI (Bead name: CCL4/MIP-1 beta),[1],589.2
same,MFI (Bead name: CCL4/MIP-1 beta),[2],611.0 and 596.5 and 560.0
same,Concentration (CCL4/MIP-1 beta),[2],15520.6 pg/mL and 15288.8 pg/mL and 14700.8 pg/mL
same,conc/live cell (CCL4/MIP-1 beta),[2],2425.1 pg/10^5 and 2548.1 pg/10^5 and 2410.0 pg/10^5
same,Concentration (CCL4/MIP-1 beta),[3],15088.0 pg/mL
same,conc/live cell (CCL4/MIP-1 beta),[3],2590.9 pg/10^5
same,MFI (Bead name: CCL4/MIP-1 beta),[3],584.0
same,MFI (Bead name: CCL4/MIP-1 beta),[4],576.0 and 592.0 and 584.0
same,Concentration (CCL4/MIP-1 beta),[4],14959.4 pg/mL and 15216.6 pg/mL and 15088.1 pg/mL
same,conc/live cell (CCL4/MIP-1 beta),[4],2412.8 pg/10^5 and 2926.3 pg/10^5 and 2433.6 pg/10^5
same,Concentration (CCL4/MIP-1 beta),[5],14794.1 pg/mL
same,conc/live cell (CCL4/MIP-1 beta),[5],2273.3 pg/10^5
same,MFI (Bead name: CCL4/MIP-1 beta),[5],565.8
same,MFI (Bead name: CCL4/MIP-1 beta),[6],594.0 and 556.5 and 547.0
same,Concentration (CCL4/MIP-1 beta),[6],15248.7 pg/mL and 14644.0 pg/mL and 14489.7 pg/mL
same,conc/live cell (CCL4/MIP-1 beta),[6],2420.4 pg/10^5 and 2062.5 pg/10^5 and 2337.0 pg/10^5
same,Concentration (CCL4/MIP-1 beta),[7],15474.9 pg/mL
same,conc/live cell (CCL4/MIP-1 beta),[7],2351.1 pg/10^5
same,MFI (Bead name: CCL4/MIP-1 beta),[7],608.3
same,MFI (Bead name: CCL4/MIP-1 beta),[8],614.0 and 651.0 and 560.0
same,Concentration (CCL4/MIP-1 beta),[8],15568.4 pg/mL and 16155.4 pg/mL and 14700.8 pg/mL
same,conc/live cell (CCL4/MIP-1 beta),[8],2594.7 pg/10^5 and 2524.3 pg/10^5 and 1934.3 pg/10^5
same,Concentration (CCL4/MIP-1 beta),[9],13712.9 pg/mL
same,conc/live cell (CCL4/MIP-1 beta),[9],2374.0 pg/10^5
same,MFI (Bead name: CCL4/MIP-1 beta),[9],499.8
same,MFI (Bead name: CCL4/MIP-1 beta),[10],537.0 and 474.5 and 488.0
same,Concentration (CCL4/MIP-1 beta),[10],14326.7 pg/mL and 13293.2 pg/mL and 13518.7 pg/mL
same,conc/live cell (CCL4/MIP-1 beta),[10],2274.1 pg/10^5 and 2144.1 pg/10^5 and 2703.7 pg/10^5
same,conc/live cell (CCL4/MIP-1 beta),[11],0.0 pg/10^5
same,MFI (Bead name: CCL4/MIP-1 beta),[11],0.0
same,MFI (Bead name: CCL4/MIP-1 beta),[12],0.0
same,conc/live cell (CCL4/MIP-1 beta),[12],0.0 pg/10^5
same,conc/live cell (CCL4/MIP-1 beta),[13],0.0 pg/10^5
same,MFI (Bead name: CCL4/MIP-1 beta),[13],0.0
same,MFI (Bead name: CCL4/MIP-1 beta),[14],0.0
same,conc/live cell (CCL4/MIP-1 beta),[14],0.0 pg/10^5
same,conc/live cell (CCL4/MIP-1 beta),[15],0.0 pg/10^5
same,MFI (Bead name: CCL4/MIP-1 beta),[15],−0.8
same,MFI (Bead name: CCL4/MIP-1 beta),[16],−1.0 and −0.5
same,conc/live cell (CCL4/MIP-1 beta),[16],0.0 pg/10^5
same,Concentration (CCL4/MIP-1 beta),[17],1948.5 pg/mL
same,conc/live cell (CCL4/MIP-1 beta),[17],152.2 pg/10^5
same,MFI (Bead name: CCL4/MIP-1 beta),[17],5.5
same,MFI (Bead name: CCL4/MIP-1 beta),[18],10.0 and 1.0
same,Concentration (CCL4/MIP-1 beta),[18],1948.5 pg/mL
same,conc/live cell (CCL4/MIP-1 beta),[18],304.4 pg/10^5 and 0.0 pg/10^5
same,Concentration (CCL4/MIP-1 beta),[19],1360.7 pg/mL
same,conc/live cell (CCL4/MIP-1 beta),[19],207.4 pg/10^5
same,MFI (Bead name: CCL4/MIP-1 beta),[19],6.5
same,MFI (Bead name: CCL4/MIP-1 beta),[20],10.0 and 3.0
same,Concentration (CCL4/MIP-1 beta),[20],1948.5 pg/mL and 772.9 pg/mL
same,conc/live cell (CCL4/MIP-1 beta),[20],304.4 pg/10^5 and 110.4 pg/10^5
